Results taken from patent publication US7851474B2, “Dipiperazinyl ketones and related analogues” (Neurogen Corporation, priority 2005, dated 2010).

What follows are compounds tested against T1, chimeric human H3 receptor (Homo sapiens, UniProt Q9Y5N1, E19D) (assay: Chimeric human H3 receptor screening GTP binding assay (inhibition of histamine-stimulated GTP-gamma35S binding, Example 8)). Conditions: 1 h; "+" in Ki of Table II; assay of Example 8; read-out: percent inhibition of agonist-induced GTP-gammaS binding to H3.
T1 construct: made in house; host or cells: Sf9 insect cells (baculovirus infection); P2 membrane preparation
T1 sequence (Q9Y5N1 with tags, fused parts or gaps E19D): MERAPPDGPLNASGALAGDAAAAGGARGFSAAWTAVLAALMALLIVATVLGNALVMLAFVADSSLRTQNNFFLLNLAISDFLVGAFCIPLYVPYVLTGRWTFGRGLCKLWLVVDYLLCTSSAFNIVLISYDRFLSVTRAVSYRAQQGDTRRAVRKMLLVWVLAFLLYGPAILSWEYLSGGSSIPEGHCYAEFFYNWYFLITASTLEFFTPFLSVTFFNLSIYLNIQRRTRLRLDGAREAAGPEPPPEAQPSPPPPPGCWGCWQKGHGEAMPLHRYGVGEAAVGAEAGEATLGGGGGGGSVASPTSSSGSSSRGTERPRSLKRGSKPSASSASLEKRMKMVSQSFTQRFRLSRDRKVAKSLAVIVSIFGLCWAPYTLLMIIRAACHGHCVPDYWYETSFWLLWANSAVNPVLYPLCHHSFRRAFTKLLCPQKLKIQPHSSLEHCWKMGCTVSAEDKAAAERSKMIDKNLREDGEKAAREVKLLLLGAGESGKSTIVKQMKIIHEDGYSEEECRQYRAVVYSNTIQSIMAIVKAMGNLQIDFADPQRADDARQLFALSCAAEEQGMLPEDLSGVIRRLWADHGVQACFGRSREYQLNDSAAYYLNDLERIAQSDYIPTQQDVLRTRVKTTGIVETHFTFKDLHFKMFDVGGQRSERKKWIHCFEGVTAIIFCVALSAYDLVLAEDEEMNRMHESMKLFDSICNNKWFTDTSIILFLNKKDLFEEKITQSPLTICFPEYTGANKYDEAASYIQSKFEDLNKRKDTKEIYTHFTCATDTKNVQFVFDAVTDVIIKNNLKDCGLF
Assay type: biochemical
Outline: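 Sf9 membranes co-expressing the chimeric receptor and a heterotrimeric G-protein (35 μg protein) in Tris pH 7.4 buffer with 10 μM GDP; compound at 4 μM plus 1 μM histamine, 125 pM GTP-gamma35S, 60 min at room temperature. Filter-bound radioactivity read; non-specific binding defined with 10 uM GTP-gammaS; percent inhibition of histamine signal.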
With `O=C(/C=C/c1ccc(Cl)c(Cl)c1)N1CCN(CC(=O)N2CCN(C3CCC3)CC2)CC1` [Compound 527, 1-cyclobutyl-4-({4-[(2E)-3-(3,4-dichlorophenyl)prop-2-enoyl]piperazin-1-yl}acetyl)piperazine] the inhibition at 4 µM was > 90%.
With `COc1ccc(/C=C/C(=O)N2CCN(CC(=O)N3CCN(C4CCC4)CC3)CC2)cc1OC` [Compound 528, 1-cyclobutyl-4-({4-[(2E)-3-(3,4-dimethoxyphenyl)prop-2-enoyl]piperazin-1-yl}acetyl)piperazine] the inhibition at 4 µM was > 90%.
`O=C(/C=C/c1ccc(F)cc1)N1CCN(CC(=O)N2CCN(C3CCC3)CC2)CC1` [Compound 529, 1-cyclobutyl-4-({4-[(2E)-3-(4-fluorophenyl)prop-2-enoyl]piperazin-1-yl}acetyl)piperazine] was tested, and the inhibition at 4 µM was > 90%.
`COc1ccc(/C=C/C(=O)N2CCN(CC(=O)N3CCN(C4CCC4)CC3)CC2)cc1` [Compound 530, 1-cyclobutyl-4-({4-[(2E)-3-(4-methoxyphenyl)prop-2-enoyl]piperazin-1-yl}acetyl)piperazine] was tested, and the inhibition at 4 µM was > 90%.
In the case of `O=C(/C=C/c1ccc(OCc2ccc(F)cc2)cc1)N1CCN(CC(=O)N2CCN(C3CCC3)CC2)CC1` [Compound 531, 1-cyclobutyl-4-({4-[(2E)-3-{4-[(4-fluorobenzyl)oxy]phenyl}prop-2-enoyl]piperazin-1-yl}acetyl)piperazine], the inhibition at 4 µM is reported as > 90%.
For `O=C(/C=C/c1ccccc1)N1CCN(CC(=O)N2CCN(C3CCC3)CC2)CC1` [Compound 532, 1-cyclobutyl-4-({4-[(2E)-3-phenylprop-2-enoyl]piperazin-1-yl}acetyl)piperazine], the inhibition at 4 µM was > 90%.
In the case of `CCOc1ccccc1CC(=O)N1CCN(CC(=O)N2CCN(C3CCC3)CC2)CC1` [Compound 533, 1-cyclobutyl-4-({4-[(2-ethoxyphenyl)acetyl]piperazin-1-yl}acetyl)piperazine], the inhibition at 4 µM is reported as > 90%.
`O=C(Cc1ccccc1F)N1CCN(CC(=O)N2CCN(C3CCC3)CC2)CC1` [Compound 534, 1-cyclobutyl-4-({4-[(2-fluorophenyl)acetyl]piperazin-1-yl}acetyl)piperazine] was tested, and the inhibition at 4 µM was > 90%.
In the case of `COc1ccccc1OCC(=O)N1CCN(CC(=O)N2CCN(C3CCC3)CC2)CC1` [Compound 535, 1-cyclobutyl-4-({4-[(2-methoxyphenoxy)acetyl]piperazin-1-yl}acetyl)piperazine], the inhibition at 4 µM is reported as > 90%.
For `COc1ncccc1C(=O)N1CCN(CC(=O)N2CCN(C3CCC3)CC2)CC1` [Compound 537, 1-cyclobutyl-4-({4-[(2-methoxypyridin-3-yl)carbonyl]piperazin-1-yl}acetyl)piperazine], the inhibition at 4 µM was > 90%.
In the case of `Cc1ccccc1OCC(=O)N1CCN(CC(=O)N2CCN(C3CCC3)CC2)CC1` [Compound 538, 1-cyclobutyl-4-({4-[(2-methylphenoxy)acetyl]piperazin-1-yl}acetyl)piperazine], the inhibition at 4 µM is reported as > 90%.
In the case of `Cc1ccccc1CC(=O)N1CCN(CC(=O)N2CCN(C3CCC3)CC2)CC1` [Compound 539, 1-cyclobutyl-4-({4-[(2-methylphenyl)acetyl]piperazin-1-yl}acetyl)piperazine], the inhibition at 4 µM is reported as > 90%.
`O=C(COc1ccc2ccccc2c1)N1CCN(CC(=O)N2CCN(C3CCC3)CC2)CC1` [Compound 540, 1-cyclobutyl-4-({4-[(2-naphthyloxy)acetyl]piperazin-1-yl}acetyl)piperazine] was tested, and the inhibition at 4 µM was > 90%.
In the case of `O=C(CN1CCN(C(=O)c2cccnc2Oc2ccccc2)CC1)N1CCN(C2CCC2)CC1` [Compound 542, 1-cyclobutyl-4-({4-[(2-phenoxypyridin-3-yl)carbonyl]piperazin-1-yl}acetyl)piperazine], the inhibition at 4 µM is reported as > 90%.
For `O=C(CN1CCN(C(=O)c2csc(-c3ccncc3)n2)CC1)N1CCN(C2CCC2)CC1` [Compound 543, 1-cyclobutyl-4-({4-[(2-pyridin-4-yl-1,3-thiazol-4-yl)carbonyl]piperazin-1-yl}acetyl)piperazine], the inhibition at 4 µM was > 90%.
In the case of `COc1cc(CC(=O)N2CCN(CC(=O)N3CCN(C4CCC4)CC3)CC2)cc(OC)c1OC` [Compound 544, 1-cyclobutyl-4-({4-[(3,4,5-trimethoxyphenyl)acetyl]piperazin-1-yl}acetyl)piperazine], the inhibition at 4 µM is reported as > 90%.
For `O=C(COc1ccc(Cl)c(Cl)c1)N1CCN(CC(=O)N2CCN(C3CCC3)CC2)CC1` [Compound 545, 1-cyclobutyl-4-({4-[(3,4-dichlorophenoxy)acetyl]piperazin-1-yl}acetyl)piperazine], the inhibition at 4 µM was > 90%.
For `O=C(Cc1ccc(Cl)c(Cl)c1)N1CCN(CC(=O)N2CCN(C3CCC3)CC2)CC1` [Compound 546, 1-cyclobutyl-4-({4-[(3,4-dichlorophenyl)acetyl]piperazin-1-yl}acetyl)piperazine], the inhibition at 4 µM was > 90%.
With `COc1ccc(CC(=O)N2CCN(CC(=O)N3CCN(C4CCC4)CC3)CC2)cc1OC` [Compound 547, 1-cyclobutyl-4-({4-[(3,4-dimethoxyphenyl)acetyl]piperazin-1-yl}acetyl)piperazine] the inhibition at 4 µM was > 90%.
With `COc1cc(CC(=O)N2CCN(CC(=O)N3CCN(C4CCC4)CC3)CC2)cc(OC)c1` [Compound 548, 1-cyclobutyl-4-({4-[(3,5-dimethoxyphenyl)acetyl]piperazin-1-yl}acetyl)piperazine] the inhibition at 4 µM was > 90%.
For `CCOc1ccsc1C(=O)N1CCN(CC(=O)N2CCN(C3CCC3)CC2)CC1` [Compound 549, 1-cyclobutyl-4-({4-[(3-ethoxy-2-thienyl)carbonyl]piperazin-1-yl}acetyl)piperazine], the inhibition at 4 µM was > 90%.
For `O=C(Cc1cccc(F)c1)N1CCN(CC(=O)N2CCN(C3CCC3)CC2)CC1` [Compound 550, 1-cyclobutyl-4-({4-[(3-fluorophenyl)acetyl]piperazin-1-yl}acetyl)piperazine], the inhibition at 4 µM was > 90%.
With `COc1cccc(OCC(=O)N2CCN(CC(=O)N3CCN(C4CCC4)CC3)CC2)c1` [Compound 551, 1-cyclobutyl-4-({4-[(3-methoxyphenoxy)acetyl]piperazin-1-yl}acetyl)piperazine] the inhibition at 4 µM was > 90%.
For `COc1cccc(CC(=O)N2CCN(CC(=O)N3CCN(C4CCC4)CC3)CC2)c1` [Compound 552, 1-cyclobutyl-4-({4-[(3-methoxyphenyl)acetyl]piperazin-1-yl}acetyl)piperazine], the inhibition at 4 µM was > 90%.
With `Cc1ccsc1C(=O)N1CCN(CC(=O)N2CCN(C3CCC3)CC2)CC1` [Compound 553, 1-cyclobutyl-4-({4-[(3-methyl-2-thienyl)carbonyl]piperazin-1-yl}acetyl)piperazine] the inhibition at 4 µM was > 90%.
With `Cc1cccc(OCC(=O)N2CCN(CC(=O)N3CCN(C4CCC4)CC3)CC2)c1` [Compound 554, 1-cyclobutyl-4-({4-[(3-methylphenoxy)acetyl]piperazin-1-yl}acetyl)piperazine] the inhibition at 4 µM was > 90%.
With `Cc1cccc(CC(=O)N2CCN(CC(=O)N3CCN(C4CCC4)CC3)CC2)c1` [Compound 555, 1-cyclobutyl-4-({4-[(3-methylphenyl)acetyl]piperazin-1-yl}acetyl)piperazine] the inhibition at 4 µM was > 90%.
With `O=C(Cc1cccc(Oc2ccccc2)c1)N1CCN(CC(=O)N2CCN(C3CCC3)CC2)CC1` [Compound 556, 1-cyclobutyl-4-({4-[(3-phenoxyphenyl)acetyl]piperazin-1-yl}acetyl)piperazine] the inhibition at 4 µM was > 90%.
`CCOc1ccc(CC(=O)N2CCN(CC(=O)N3CCN(C4CCC4)CC3)CC2)cc1OC` [Compound 557, 1-cyclobutyl-4-({4-[(4-ethoxy-3-methoxyphenyl)acetyl]piperazin-1-yl}acetyl)piperazine] was tested, and the inhibition at 4 µM was > 90%.
For `O=C(COc1ccc(F)cc1)N1CCN(CC(=O)N2CCN(C3CCC3)CC2)CC1` [Compound 558, 1-cyclobutyl-4-({4-[(4-fluorophenoxy)acetyl]piperazin-1-yl}acetyl)piperazine], the inhibition at 4 µM was > 90%.
`O=C(Cc1ccc(F)cc1)N1CCN(CC(=O)N2CCN(C3CCC3)CC2)CC1` [Compound 559, 1-cyclobutyl-4-({4-[(4-fluorophenyl)acetyl]piperazin-1-yl}acetyl)piperazine] was tested, and the inhibition at 4 µM was > 90%.
For `CC(C)c1ccc(CC(=O)N2CCN(CC(=O)N3CCN(C4CCC4)CC3)CC2)cc1` [Compound 560, 1-cyclobutyl-4-({4-[(4-isopropylphenyl)acetyl]piperazin-1-yl}acetyl)piperazine], the inhibition at 4 µM was > 90%.
In the case of `COc1cscc1C(=O)N1CCN(CC(=O)N2CCN(C3CCC3)CC2)CC1` [Compound 561, 1-cyclobutyl-4-({4-[(4-methoxy-3-thienyl)carbonyl]piperazin-1-yl}acetyl)piperazine], the inhibition at 4 µM is reported as > 90%.
With `COc1ccc(OCC(=O)N2CCN(CC(=O)N3CCN(C4CCC4)CC3)CC2)cc1` [Compound 562, 1-cyclobutyl-4-({4-[(4-methoxyphenoxy)acetyl]piperazin-1-yl}acetyl)piperazine] the inhibition at 4 µM was > 90%.
With `COc1ccc(CC(=O)N2CCN(CC(=O)N3CCN(C4CCC4)CC3)CC2)cc1` [Compound 563, 1-cyclobutyl-4-({4-[(4-methoxyphenyl)acetyl]piperazin-1-yl}acetyl)piperazine] the inhibition at 4 µM was > 90%.
`Cc1nnsc1C(=O)N1CCN(CC(=O)N2CCN(C3CCC3)CC2)CC1` [Compound 564, 1-cyclobutyl-4-({4-[(4-methyl-1,2,3-thiadiazol-5-yl)carbonyl]piperazin-1-yl}acetyl)piperazine] was tested, and the inhibition at 4 µM was > 90%.
With `Cc1ccc(C(C(=O)N2CCN(CC(=O)N3CCN(C4CCC4)CC3)CC2)c2ccccc2)cc1` (centres unmarked) [Compound 565, 1-cyclobutyl-4-({4-[(4-methylphenyl)(phenyl)acetyl]piperazin-1-yl}acetyl)piperazine] the inhibition at 4 µM was > 90%.
In the case of `Cc1ccc(CC(=O)N2CCN(CC(=O)N3CCN(C4CCC4)CC3)CC2)cc1` [Compound 566, 1-cyclobutyl-4-({4-[(4-methylphenyl)acetyl]piperazin-1-yl}acetyl)piperazine], the inhibition at 4 µM is reported as > 90%.
